This passage reports IC50 results from ChEMBL document CHEMBL3351570, “Design and synthesis of 2-phenylnaphthalenoids as inhibitors of DNA topoisomeraseIIα and antitumor agents” (Eur J Med Chem, 2014).

The IC50 is the point on the concentration scale where inhibition reaches its midpoint. A low value points to greater potency.

What all share (type): functional, cell-based
For one test, the system named is MDA-MB-231. In words: Cytotoxicity against human MDA-MB-231 cells after 72 hrs by sulforhodamine B assay. The conditions noted are these: MDA-MB-231, 72 h. Background: Sulforhodamine B stains cellular protein and so reports cell mass.
The next test relates to HeLa. In words: Cytotoxicity against human HeLa cells after 72 hrs by sulforhodamine B assay.
Another test concerns A549. As to the kind of experiment: Cytotoxicity against human A549 cells after 72 hrs by sulforhodamine B assay. As to conditions: A549, 72 h.

For the compound `COC(=O)Cc1cc(-c2ccc3cc(O)ccc3c2)ccc1O`, half-maximal inhibition in the test with MDA-MB-231 (IC50) was put at 98 µM.

Consider `CC(O)c1ccc(-c2ccc3cc(O)ccc3c2)cc1` (stereo not drawn), for which the IC50 with MDA-MB-231 stood at 7.6 µM; in the test with HeLa, 3.4 µM; in the test on A549, 19.9 µM.

With `Nc1ccc(-c2ccc3cc(O)ccc3c2)cc1`, the results for the IC50 in the test with MDA-MB-231, in the test with HeLa and with A549 were 18.2 µM, 3.1 µM and 19.8 µM, respectively.

On to `Oc1ccc(-c2ccc3cc(O)ccc3c2)cc1`, for which the half-maximal inhibitory concentration (IC50) in the test on MDA-MB-231 came out at 10.5 µM; with HeLa, 3.1 µM; in the test on A549, 11.4 µM.

Consider `COC(=O)c1ccc(-c2ccc3cc(OC)ccc3c2)cc1O`, for which the figures for the IC50 with MDA-MB-231, with HeLa and in the test with A549 were 77.3 µM, over 20 µM and over 20 µM, respectively.

Consider `COC(=O)Cc1ccc(-c2ccc3cc(OC)ccc3c2)cc1`, for which the figures for the 50% inhibitory concentration (IC50) in the test on MDA-MB-231, in the test with HeLa and in the test on A549 were 695 µM, over 20 µM and over 20 µM, respectively.

For the compound `O=C(O)Cc1cc(-c2ccc3cc(O)ccc3c2)ccc1O`, the half-inhibitory concentration (IC50) was over 800 µM in the test with MDA-MB-231, over 20 µM with HeLa and over 20 µM with A549.

Turning to `COc1ccc2cc(-c3ccc(C(C)O)cc3)ccc2c1` (stereo not drawn), the concentration for half-maximal inhibition (IC50) in the test with MDA-MB-231 was 69.8 µM; in the test with HeLa, over 20 µM; in the test on A549 it was over 20 µM.

Take `COc1ccc2cc(-c3ccc(CO)cc3)ccc2c1`: the IC50 in the test on MDA-MB-231 was 152 µM; in the test with HeLa it was 9.1 µM; with A549, 7.9 µM.

For the compound `COC(=O)c1ccc(O)c(-c2ccc3cc(OC)ccc3c2)c1`, the 50% inhibitory concentration (IC50) in the test on MDA-MB-231 was 36.5 µM; in the test on HeLa, over 20 µM; in the test on A549, over 20 µM.

With `COC(=O)c1ccc(-c2ccc3cc(OC)ccc3c2)cc1`, the figures for the IC50 with MDA-MB-231, in the test on HeLa and in the test on A549 were over 800 µM, over 20 µM and over 20 µM, respectively.

Consider `COc1ccc2cc(-c3ccc(O)c(C(=O)O)c3)ccc2c1`, for which the IC50 in the test on MDA-MB-231 is 93.3 µM; in the test on HeLa, over 20 µM; with A549, over 20 µM.

As to `COc1ccc(-c2ccc3cc(O)ccc3c2)cc1OC`, the half-maximal inhibitory concentration (IC50) was determined as 16.8 µM in the test with MDA-MB-231, 4.8 µM in the test on HeLa and 20 µM in the test with A549.

For the compound `O=C(O)c1cc(-c2ccc3cc(O)ccc3c2)ccc1O`, the 50% inhibitory concentration (IC50) with MDA-MB-231 was 31.5 µM; with HeLa it was over 20 µM; in the test on A549, over 20 µM.

Turning to `COc1ccc2cc(-c3cc(C=O)ccc3O)ccc2c1`, the values for the IC50 in the test with MDA-MB-231, in the test with HeLa and in the test on A549 were 25.3 µM, over 20 µM and 14.1 µM, respectively.

Regarding `COc1ccc2cc(-c3ccc(CCO)c(O)c3)ccc2c1`, the IC50 was 92 µM in the test on MDA-MB-231, over 20 µM in the test with HeLa and over 20 µM with A549.

On to `COc1ccc2cc(-c3cccc(C(F)(F)F)c3)ccc2c1`, for which the values for the concentration for half-maximal inhibition (IC50) with MDA-MB-231, with HeLa and with A549 were 455 µM, over 20 µM and over 20 µM, respectively.

Consider `COc1ccc2cc(-c3ccc(CC(=O)O)cc3)ccc2c1`, for which the figures for the IC50 with MDA-MB-231, with HeLa and with A549 were 272 µM, over 20 µM and over 20 µM, respectively.

Consider `COC(=O)Cc1cc(-c2ccc3cc(OC)ccc3c2)ccc1O`, for which the values for the IC50 with MDA-MB-231, in the test on HeLa and in the test on A549 were over 800 µM, over 20 µM and over 20 µM, respectively.

Turning to `COc1ccc2cc(-c3ccc(OC(C)=O)c(COC(C)=O)c3)ccc2c1`, the figures for the IC50 in the test on MDA-MB-231, in the test with HeLa and with A549 were 81.8 µM, over 20 µM and over 20 µM, respectively.

Consider `COc1ccc2cc(-c3ccc(C(F)(F)F)cc3)ccc2c1`, for which the results for the IC50 in the test on MDA-MB-231, in the test on HeLa and in the test with A549 were 54.9 µM, over 20 µM and over 20 µM, respectively.

For `COC(=O)C(O)c1ccc(-c2ccc3cc(OC)ccc3c2)cc1` (stereo not drawn), the half-inhibitory concentration (IC50) in the test with MDA-MB-231 was 24.2 µM; in the test on HeLa it was over 20 µM; with A549, over 20 µM.

Turning to `COc1ccc2cc(-c3cccc(CO)c3)ccc2c1`, the half-maximal inhibitory concentration (IC50) was 19.9 µM with MDA-MB-231, 20 µM with HeLa and over 20 µM in the test with A549.

With `COc1ccc2cc(-c3cc(C=O)c(O)c(OC)c3)ccc2c1`, the figures for the 50% inhibitory concentration (IC50) with MDA-MB-231, in the test on HeLa and with A549 were 61.8 µM, over 20 µM and over 20 µM, respectively.

On to `O=C(O)c1ccc(-c2ccc3cc(O)ccc3c2)cc1O`, for which the IC50 in the test on MDA-MB-231 was determined as 8.1 µM; in the test with HeLa, 5.5 µM; with A549, 15.3 µM.
